Experimental data from publication PMC10033419, “Blocking NS3–NS4B interaction inhibits dengue virus in non-human primates” (Nature, 2023).
Several values for one entry are separate records, joined by “and”; a condition that tells them apart may be missing. Equal entries are not always repeated. Where two headings read alike, the source gives them in different places.

System: DENV-2 RL
Assay: microbe, parasite or virus in culture
Type: cell-based
Conditions: Dengue virus, DENV2, Vero

Compound `COc1cc(N[C@H](C(=O)c2c[nH]c3ccc(OC(F)(F)F)cc23)c2ccc(Cl)cc2OC)cc(S(C)(=O)=O)c1` [JNJ-1802] has an EC50 (read-out: EC50 values Ave, B sample, passage 8) of 0.126 nM, an EC50 (read-out: EC50 values Ave, B sample, passage 9) of 0.126 nM and an EC50 (read-out: EC50 values Ave, B sample, passage 10) of 0.126 nM. For the same compound, the EC50 (read-out: EC50 values Ave, B sample, passage 11) was 0.000146 µg/mL and 0.251 nM, the EC50 (read-out: EC50 values Ave, B sample, passage 12) was 0.000146 µg/mL and 0.251 nM and the EC50 (read-out: EC50 values Ave, B sample, passage 13) was 0.000293 µg/mL and 0.503 nM. For the same compound, the EC50 (read-out: EC50 values Ave, B sample, passage 14) was 0.126 nM, the EC50 (read-out: EC50 values Ave, B sample, passage 15) was 0.126 nM and the EC50 (read-out: EC50 values Ave, B sample, passage 16) was 0.000146 µg/mL and 0.251 nM. The EC50 (read-out: EC50 values Ave, B sample, passage 17) was 0.000146 µg/mL and 0.251 nM, the EC50 (read-out: EC50 values Ave, B sample, passage 18) was 0.000146 µg/mL and 0.251 nM and the EC50 (read-out: EC50 values Ave, B sample, passage 19) was 0.000293 µg/mL and 0.503 nM. For the same compound, the EC50 (read-out: EC50 values Ave, B sample, passage 20) was 0.000293 µg/mL and 0.503 nM, the EC50 (read-out: EC50 values Ave, B sample, passage 21) was 0.000293 µg/mL and 0.503 nM and the EC50 (read-out: EC50 values Ave, B sample, passage 22) was 0.000293 µg/mL and 0.503 nM. The EC50 (read-out: EC50 values Ave, B sample, passage 23) was 1.01 nM, the EC50 (read-out: EC50 values Ave, B sample, passage 24) was 0.00117 µg/mL and 2.01 nM and the EC50 (read-out: EC50 values Ave, B sample, passage 25) was 0.00234 µg/mL and 4.02 nM. For the same compound, the EC50 (read-out: EC50 values Ave, B sample, passage 26) was 0.00469 µg/mL and 8.04 nM, the EC50 (read-out: EC50 values Ave, B sample, passage 27) was 0.00469 µg/mL and 8.04 nM and the EC50 (read-out: EC50 values Ave, B sample, passage 28) was 0.00469 µg/mL and 8.04 nM. For the same compound, the EC50 (read-out: EC50 values Ave, B sample, passage 31) was 0.0234 µg/mL and 40.2 nM, the EC50 (read-out: EC50 values Ave, B sample, passage 32) was 0.0234 µg/mL and 40.2 nM and the EC50 (read-out: EC50 values Ave, B sample, passage 33) was 0.0469 µg/mL and 80.4 nM. For the same compound, the EC50 (read-out: EC50 values Ave, B sample, passage 34) was 0.0469 µg/mL and 80.4 nM, the EC50 (read-out: EC50 values Ave, B sample, passage 35) was 0.0469 µg/mL and 80.4 nM and the EC50 (read-out: EC50 values Ave, B sample, passage 36) was 0.0469 µg/mL and 80.4 nM. The EC50 (read-out: EC50 values Ave, B sample, passage 37) was 0.0469 µg/mL and 80.4 nM, the EC50 (read-out: EC50 values Ave, B sample, passage 38) was 0.0469 µg/mL and 80.4 nM and the EC50 (read-out: EC50 values Ave, B sample, passage 39) was 0.0938 µg/mL and 161 nM. The EC50 (read-out: EC50 values Ave, B sample, passage 40) was 322 nM, the EC50 (read-out: EC50 values Ave, B sample, passage 41) was 0.375 µg/mL and 643 nM and the EC50 (read-out: EC50 values Ave, B sample, passage 42) was 0.375 µg/mL and 643 nM. For the same compound, the EC50 (read-out: EC50 values Ave, B sample, passage 43) was 0.375 µg/mL and 643 nM, the EC50 (read-out: EC50 values Ave, B sample, passage 44) was 0.375 µg/mL and 643 nM and the EC50 (read-out: EC50 values Ave, B sample, passage 45) was 0.375 µg/mL and 643 nM. The EC50 (read-out: EC50 values Ave, B sample, passage 46) was 0.375 µg/mL and 643 nM, the EC50 (read-out: EC50 values Ave, B sample, passage 47) was 0.375 µg/mL and 643 nM and the EC50 (read-out: EC50 values Ave, B sample, passage 48) was 1290 nM. It also gave an EC50 (read-out: EC50 values Ave, B sample, passage 49) of 1290 nM, an EC50 (read-out: EC50 values Ave, B sample, passage 50 (END)) of 1290 nM and an EC50 (read-out: EC50 values [Well 1], A sample, passage 1) of 0.049 ng/mL. For the same compound, the EC50 (read-out: EC50 values [Well 1], A sample, passage 2) was 0.049 ng/mL, the EC50 (read-out: EC50 values [Well 1], A sample, passage 3) was 0.049 ng/mL and the EC50 (read-out: EC50 values [Well 1], A sample, passage 4) was 0.049 ng/mL. It also gave an EC50 (read-out: EC50 values [Well 1], A sample, passage 5) of 0.049 ng/mL, an EC50 (read-out: EC50 values [Well 1], A sample, passage 7) of 0.049 ng/mL and an EC50 (read-out: EC50 values [Well 1], A sample, passage 8) of 0.049 ng/mL. It also gave an EC50 (read-out: EC50 values [Well 1], A sample, passage 10) of 0.195 ng/mL, an EC50 (read-out: EC50 values [Well 1], A sample, passage 11) of 0.195 ng/mL and an EC50 (read-out: EC50 values [Well 1], A sample, passage 12) of 0.195 ng/mL. For the same compound, the EC50 (read-out: EC50 values [Well 1], A sample, passage 13) was 0.391 ng/mL, the EC50 (read-out: EC50 values [Well 1], A sample, passage 16) was 1.56 ng/mL and the EC50 (read-out: EC50 values [Well 1], A sample, passage 17) was 3.13 ng/mL. For the same compound, the EC50 (read-out: EC50 values [Well 1], A sample, passage 18) was 6.25 ng/mL, the EC50 (read-out: EC50 values [Well 1], A sample, passage 20) was 25 ng/mL and the EC50 (read-out: EC50 values [Well 1], A sample, passage 21) was 25 ng/mL. For the same compound, the EC50 (read-out: EC50 values [Well 1], A sample, passage 22) was 25 ng/mL, the EC50 (read-out: EC50 values [Well 1], A sample, passage 23) was 25 ng/mL and the EC50 (read-out: EC50 values [Well 1], A sample, passage 24) was 50 ng/mL. The EC50 (read-out: EC50 values [Well 1], A sample, passage 25) was 50 ng/mL, the EC50 (read-out: EC50 values [Well 1], A sample, passage 26) was 100 ng/mL and the EC50 (read-out: EC50 values [Well 1], A sample, passage 27) was 200 ng/mL. It also gave an EC50 (read-out: EC50 values [Well 1], A sample, passage 28) of 200 ng/mL, an EC50 (read-out: EC50 values [Well 1], A sample, passage 29) of 200 ng/mL and an EC50 (read-out: EC50 values [Well 1], A sample, passage 30) of 200 ng/mL. It also gave an EC50 (read-out: EC50 values [Well 1], A sample, passage 31) of 100 ng/mL.
